Measured values published in EPA's ToxValDB 9.5 (doi:10.2903/j.efsa.2019.5821).
Values after ≈ are worked out from the molar mass of the structure shown.

Columns and labels:
Rattus norvegicus = settings: for NOAEL: body weight
Oryctolagus sp. = settings: developmental; development
Oncorhynchus mykiss = settings: acute; duration: 96 hours; mortality
Typhlodromus pyri = assay: LR50; higher = less toxic; settings: not reported; mortality
Folsomia candida = settings: chronic/long-term; duration: 28 days; mortality
Mus musculus = settings: chronic; duration: 18 months; body weight
Tagia sp. = settings: chronic/long-term; duration: 56 days; reproduction
Apis mellifera = settings: acute, mortality
Daphnia magna = settings: chronic/long-term; duration: 21 days; reproduction

| Structure (SMILES) | NOAEL (Rattus norvegicus; short-term, duration: 28 days) | NOAEL (Oryctolagus sp.) | LC50 (Oncorhynchus mykiss) | LR50 (Typhlodromus pyri) | NOEC (Folsomia candida) | NOAEL (Mus musculus) | NOEC (Tagia sp.) | LD50 (Rattus norvegicus; acute, oral, mortality) | NOAEL (Rattus norvegicus; reproduction developmental) | LD50 (Apis mellifera; dermal) | LD50 (Apis mellifera; oral, unspecified) | LC50 (Colinus virginianus; acute, oral, diet, mortality) | LD50 (Colinus virginianus; acute, oral, mortality) | NOEC (Colinus virginianus; reproduction developmental) | NOEC (Daphnia magna) |
| --- | --- | --- | --- | --- | --- | --- | --- | --- | --- | --- | --- | --- | --- | --- | --- |
| Cn1cc(C(N)=O)c(C(F)F)n1 [3-(Difluoromethyl)-1-methyl-1H-pyrazole-4-carboxamide] | 37.4 mg/kg-day |  |  |  |  |  |  |  |  |  |  |  |  |  |  |
| Cn1cc(C(=O)O)c(C(F)F)n1 [3-(Difluoromethyl)-1-methyl-1H-pyrazole-4-carboxylic acid] |  | 250 mg/kg-day | > 100 µg/mL |  |  |  |  |  |  |  |  |  |  |  |  |
| CON(C(=O)c1cn(C)nc1C(F)F)C(C)Cc1c(Cl)cc(Cl)cc1Cl (configuration not stated) [Pydiflumetofen] |  | 10 mg/kg-day | 0.18 µg/mL (≈ 0.422 µM) | > 408 g/ha | 186 mg/kg | 9.2 mg/kg-day | 15.9 mg/kg | > 5000 mg/kg-day | 30 mg/kg-day | > 100 µg/piece | > 116 µg/piece | > 1260 mg/kg-day | 3780 mg/kg-day | 90.1 mg/kg-day | 0.042 mg/L |
